According to patent publication US20060287378A1, “Novel pyrroles and imidazoles” (priority 2003, published 2006):
pIC50: −log10 of the molar value. Read-outs that look alike come from different tables or passages of the source.

Experiments:
[1] = target: T1, HMGCoA (3-Hydroxy-3-methylglutaryl CoA) Reductase (Rattus norvegicus, UniProt P51639); test: HMGCoA reductase assay with rat liver microsomes (14C-HMGCoA); assay type: biochemical; details: in vitro assay, 45 min at 37° C.
T1 construct: Male Charles River Sprague-Dawley rats were fed with 2.5% cholestyramine in rat chow diets for 5 days before sacrificing; from tissue; host or cells: liver microsomes of male Sprague-Dawley rats fed cholestyramine
T1 sequence (P51639 1-887): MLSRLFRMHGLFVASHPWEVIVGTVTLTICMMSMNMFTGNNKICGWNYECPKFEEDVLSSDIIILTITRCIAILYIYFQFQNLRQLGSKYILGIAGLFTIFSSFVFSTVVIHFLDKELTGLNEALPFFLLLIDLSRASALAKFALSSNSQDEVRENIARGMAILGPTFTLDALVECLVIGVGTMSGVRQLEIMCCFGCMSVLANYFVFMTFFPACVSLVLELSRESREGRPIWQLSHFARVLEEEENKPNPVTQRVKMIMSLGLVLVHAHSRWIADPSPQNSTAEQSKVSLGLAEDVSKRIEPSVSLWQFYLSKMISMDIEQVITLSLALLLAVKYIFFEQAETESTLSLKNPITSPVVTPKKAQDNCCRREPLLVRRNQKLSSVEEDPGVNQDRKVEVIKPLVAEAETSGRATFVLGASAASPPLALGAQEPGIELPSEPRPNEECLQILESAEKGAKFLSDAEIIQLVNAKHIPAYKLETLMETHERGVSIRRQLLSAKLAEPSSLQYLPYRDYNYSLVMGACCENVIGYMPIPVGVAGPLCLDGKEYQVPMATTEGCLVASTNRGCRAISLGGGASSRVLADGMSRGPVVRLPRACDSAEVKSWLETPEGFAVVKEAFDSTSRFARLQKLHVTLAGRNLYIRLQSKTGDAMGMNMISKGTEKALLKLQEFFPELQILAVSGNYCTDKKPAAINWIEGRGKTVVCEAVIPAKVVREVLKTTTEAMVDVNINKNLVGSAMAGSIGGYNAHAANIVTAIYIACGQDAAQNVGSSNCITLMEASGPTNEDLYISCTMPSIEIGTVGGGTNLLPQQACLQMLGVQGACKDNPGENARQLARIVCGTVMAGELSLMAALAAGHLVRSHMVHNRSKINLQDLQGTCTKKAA
Description: Rat Liver Microsomal Isolation Procedure:
Male Charles River Sprague-Dawley rats were fed with 2.5% cholestyramine in rat chow diets for 5 days before sacrificing. Livers were minced and homogenized in a sucrose homogenizing solution in an ice bath 10 times. Homogenates were diluted into a final volume of 200 mL, and centrifuged 15 min. with a Sorvall Centrifuge at 5° C., 10,000 rpm (12,000×G). The upper fat layer was removed and the supernatant decanted into fresh tubes. This step was repeated one more time before transferring the supernatant into ultracentrifuge tubes and centrifuged at 36,000 rpm (105,000×G) for an hour at 5° C. The resulting supernatant was discarded and the pellet was added to total of 15 mL 0.2 M KH2PO4. Pellets were homogenized gently by hand about 10 times. Samples were pooled and diluted into total of 60 mL buffer. The protein concentration of the homogenate was determined by the […] using a BCA (Bicinchoninic acid), kit from Pierce Chemical Company. 1 mL aliquots of microsomes were kept frozen in liquid nitrogen.
HMGCoA (3-Hydroxy-3-methylglutaryl CoA) Reductase Assay:
[3-^14C]-HMGCoA (57.0 mCi/mmol) was purchased from Amersham Biosciences, UK. HMGCoA, mevalonolactone, P-NADPH (P-Nicotinamide Adenine Dinucleotide Phosphate, Reduced form) were purchased from Sigma Chemical Co. AG 1-8×resin was purchased from Bio-Rad Laboratory. • 1. One μL of dimethyl sulfoxide (DMSO) or 1 μL of DMSO containing a test compound at a concentration sufficient to give a final assay concentration of between 0.1 nM to 1 mM was placed into each well of a Corning 96 well plate. A Volume of 34 µL of buffer (100 mM NaH2PO4, 10 mM Imidazole and 10 mM EDTA), (Ethylenediaminetetra acetic acid) containing with 50 µg/mL rat liver microsomes was added into each well. After incubation for 30 min. on ice, 15 µL of ^14C-HMGCoA (0.024 μCi) with 15 mM NADPH, 25 mM DTT, (Dithiothreitol) was added and incubated at 37° C. for an additional 45 min.
The reaction was terminated by the addition of 10 μL of HCl followed by 5 μL of mevalonolactone. Plates were incubated at room temperature overnight to allow lactonization of mevalonate to mevalonolactone. The incubated samples were applied to columns containing 300 μL of AG1-X8 anion exchange resin in a Corning filter plate.
The eluates were collected into Corning 96 well capture plates. Scintillation cocktail (Ultima-Flo-M) was added into each well and plates counted on a Trilux Microbeta Counter. The IC50 values were calculated with GraphPad software (Prism). Procedure: • 2. Add 1 μL DMSO or compounds into the wells according to the protocol • 3. Add 35 μL incubation buffer with the rat microsomes into each well. Incubate 30 min. at 4° C. • 4. Add 15 μL ^14C-HMGCoA. Incubate 45 min. at 37° C. • 5. Add 10 μL HCl stop reagent • 6. Add 5 μL mevelonolactone. Incubate overnight at room temperature • 7. Apply the containing into the AG 1-X8 anion exchange resin in Corning filter plate • 8. Collect the eluate into Corning capture plate • 9. Add scintillation cocktail Ultima-Flo-M • 10. Count on a Trilux Microbeta Counter μ • 11. Calculate IC50 values

[2] = system: Sterol Biosynthesis in Rat Hepatocytes; test: Sterol biosynthesis in rat hepatocytes (14C acetic acid into cholesterol); assay type: cell-based; details: Hepatocyte
Description: Protocol for Sterol Biosynthesis in Rat Hepatocytes:
(§1) Cell culture, compounds treatment and cell labeling:
Frozen rat hepatocytes purchased from XenoTech (cat# N400572) were seeded on 6-well collagen I coated plates at a density of 10^5 cells/per well. The cells were grown in DMEM, (Dulbecco's Modified Eagle Medium) (Gibco, #11054-020) containing 10% FBS (Fetal Bovine Serum) and 10 mM HEPES, (N-2-hydroxyethyl-piperazine-N^1-2-ethane sulfonic acid) (Gibco # 15630-080) for 24 hrs. The cells were pre-incubated with compounds for 4 hrs and then labeled by incubating in medium containing 1 uCVper mL of ^14C acetic acid for an additional 4 hrs. After labeling, the cells were washed twice with 5 mM MOPS, (3-[N-morpholino] propane sulfonic acid) solution containing 150 mM NaCl and 1 mM EDTA and collected in the lysis buffer containing 10% KOH and 80% (vol.) ethanol. Cholesterol extraction and data analysis:
In order to separate labeled cholesterol from labeled non-cholesterol lipids, the cells lysates were subject to saponification at 60° C. for 2 hrs. The lysates were then combined with 0.5 volume of H2O and 2 volumes of hexane, followed by 30 minutes of vigorous shaking. After the separation of two phases, the upper-phase solution was collected and combined with 5 volumes of scintillation cocktail. The amount of ^14C cholesterol was quantified by liquid scintillation counting. The IC50 values were calculated with GraphPad software (Prism 3.03).

[3] = system: Sterol Biosynthesis in L6 Rat Myoblast; test: Sterol biosynthesis in L6 rat myoblast (14C acetic acid into cholesterol); assay type: cell-based; details: 3 hours pre-incubation, 3 hours 14C acetic acid labeling
Description: C.) Protocol for Sterol Biosynthesis in L6 Rat Myoblast:
as §1
L6 rat myoblast purchased from ATCC (CRL-1458) were grown in T-150 vented culture flasks and seeded on 12-well culture plates at a density of 60,000 cells per well. The cells were grown in DMEM, (Dulbecco's Modified Eagle Medium) (Gibco, #10567-014) containing 10% heat inactivated FBS (Fetal Bovine Serum) (Gibco # 10082-139) for 72 hours until reaching confluence. The cells were pre-incubated in media with compound and 0.2% DMSO (dimethyl sulfoxide) for 3 hours and then labeled by incubating in medium containing compound, 0.2% DMSO and 1 □]Ci/per mL of ^14C acetic acid for an additional 3 hours. After labeling, the cells were washed once with 1×PBS (Gibco #14190-144) then lysed overnight at 4° C. in buffer containing 10% KOH and 78%(vol.) ethanol. Cholesterol extraction and data analysis:
Lipid ester bonds were hydrolyzed by saponification of the lysates at 60° C. for 2 hours. Sterols (including cholesterol) were extracted from saponified lysates by combining with 3 volumes of hexane and mixing by pipette 6 times. The upper organic phase solution was collected and combined with an equal volume of 1 N KOH in 50% methanol and mixed by pipette 6 times. The upper organic phase was collected in a scintilant-coated plate (Wallac #1450-501) and hexanes removed by evaporation at room temperature for 3 hours. The amount of ^14C cholesterol was quantified by scintillation counting in a Trilux 1450 plate reader (Wallac). The IC50 values were calculated from % inhibitions relative to negative controls vs. compound concentration on Microsoft excel 2000 data analysis wizard using a sigmoid inhibition curve model with formula: y=Bmax (1−(x^n/K^n+x^n))+y2
Where K is the IC50 for the inhibition curve, X is inhibitor concentration, Y is the response being inhibited and Bmax+Y2 is the limiting response as X approaches zero.

Row | Structure (SMILES) | pIC50 [1] | pIC50 ([2]; cell assay, rat hepatocytes, 4 hrs pre-incubation, 4 hrs 14C acetic acid labeling, read-out: IC50) | melting point | pIC50 [3] | pIC50 ([2]; Rattus norvegicus)
1 | O=C1C[C@H](O)C[C@@H](CCn2c(-c3ccc(F)cc3)nc(C(=O)NCc3ccccc3)c2C2CC2)O1 [Example 103, 5-Cyclopropyl-2-(4-fluoro-phenyl)-1-[2-((2R,4R)-4-hydroxy-6-oxo-tetrahydro-pyran-2-yl)-ethyl]-1H-imidazole-4-carboxylic acid benzylamide] | 7.30 | 10.06 | – | – | –
2 | CC(C)c1c(S(=O)(=O)NCc2ccc(C(=O)[O-])cc2)c(-c2ccc(F)cc2)c(-c2ccc(F)cc2)n1CC[C@@H](O)C[C@@H](O)CC(=O)[O-].[Na+].[Na+] [Example 43P] | – | – | > 250 °C | – | –
3 | CC(C)c1c(NC(=O)OCc2ccccc2)nc(-c2ccc(F)cc2)n1CC[C@@H](O)C[C@@H](O)CC(=O)[O-].[Na+] [Example 137, Sodium: (3R,5R)-7-[4-benzyloxycarbonylamino-2-(4-fluoro-phenyl)-5-isopropyl-imidazol-1-yl]-3,5-dihydroxy-heptanoate sodium salt] | – | – | 86 to 90 °C | – | –
4 | COc1ccc(CNC(=O)c2nc(-c3ccc(F)cc3)n(CC[C@@H](O)C[C@@H](O)CC(=O)O)c2C2CC2)cc1 [Example 111] | 8.93 | – | – | 5.19 | 9.84
5 | CC(C)c1c(C(=O)NCc2ccccc2)nc(-c2ccc(F)cc2)n1CC[C@@H](O)C[C@@H](O)CC(=O)O [Example 4] | 8.10 | – | – | 5.51 | 9.38
6 | O=C(O)C[C@H](O)C[C@H](O)CCn1c(-c2ccc(F)cc2)nc(C(=O)NCc2ccccc2)c1C1CC1 [Example 110, Sodium: (3R,5R)-7-[4-Benzylcarbamoyl-5-cyclopropyl-2-(4-fluoro-phenyl)-imidazol-1-yl]-3,5-dihydroxy-heptanoate] | 8.86 | – | – | 6.20 | 9.66
7 | Cc1cc(CNC(=O)c2nc(-c3ccc(F)cc3)n(CC[C@@H](O)C[C@@H](O)CC(=O)O)c2C(C)C)no1 [Example 62] | 8.14 | – | – | 6.15 | 9.24
8 | CC(C)c1c(C(=O)N2CCN(c3ccc(F)cc3F)CC2)nc(-c2ccc(F)cc2)n1CC[C@@H](O)C[C@@H](O)CC(=O)O [Example 69] | 8.66 | – | – | 6.80 | 9.74
9 | CN(Cc1ccccc1)C(=O)c1nc(-c2ccc(F)cc2)n(CC[C@@H](O)C[C@@H](O)CC(=O)O)c1C1CC1 [Example 112] | 8.08 | – | – | 4.13 | 8.94
10 | COc1ccc(CNC(=O)c2nc(-c3ccc(F)cc3)n(CC[C@@H]3C[C@@H](O)CC(=O)O3)c2C2CC2)cc1 [Example 104, 5-Cyclopropyl-2-(4-fluoro-phenyl)-1-[2-((2R,4R)-4-hydroxy-6-oxo-tetrahydro-pyran-2-yl)-ethyl]-1H-imidazole-4-carboxylic acid 4-methoxybenzylamide] | 7.12 | – | – | – | –
11 | CC(C)c1c(S(=O)(=O)Nc2ccccc2)c(-c2ccc(F)cc2)c(-c2ccc(F)cc2)n1CC[C@@H](O)C[C@@H](O)CC(=O)[O-].[Na+] [Example 1P, (3R,5R)-7-[2,3-bis-(4-fluoro-phenyl)-5-isopropyl-4-phenylsulfamoyl-pyrrol-1-yl]-3,5-dihydroxy-heptanoic acid monosodium salt] | – | – | 130 to 134 °C (dec.) | – | –
